Source: patent US11384074B2, “Pesticidally active pyrrole derivatives” (Syngenta Participations AG, priority 2017, dated 2022)

How the values were obtained:
Format in all cases: in vivo
[1] = test system: Thrips tabaci (Onion thrips); experiment: Thrips tabaci feeding/contact activity on sprayed sunflower leaf discs; settings: foliar, 144 h, application rate of 200 ppm, thrips population of mixed ages, assessed 6 days after infestation, read-out: control (mortality)
Procedure: Thrips tabaci (Onion thrips): Feeding/Contact Activity
(§1) Sunflower leaf discs were placed on agar in 24-well microtiter plates and sprayed with aqueous test solutions prepared from 10′000 ppm DMSO stock solutions. After drying the leaf discs were infested with a thrips population of mixed ages. The samples were assessed for mortality 6 days after infestation.

[2] = test system: Euschistus heros (Neotropical Brown Stink Bug); experiment: Euschistus heros feeding/contact activity on sprayed soybean leaves; settings: 120 h, application rate of 200 ppm, N2 nymphs, assessed 5 days after infestation, read-out: control (mortality)
Procedure: Euschistus heros (Neotropical Brown Stink Bug): Feeding/Contact Activity
Soybean leaves on agar in 24-well microtiter plates were sprayed with aqueous test solutions prepared from 10′000 ppm DMSO stock solutions. After drying the leaves were infested with N2 nymphs. The samples were assessed for mortality 5 days after infestation.

[3] = test system: Tetranychus urticae (Two-Spotted Spider Mite); experiment: Tetranychus urticae feeding/contact activity on sprayed bean leaf discs; settings: foliar, 192 h, application rate of 200 ppm, mite population of mixed ages, assessed 8 days after infestation, read-out: control (mortality on mixed population, mobile stages)
Procedure: Tetranychus urticae (Two-Spotted Spider Mite): Feeding/Contact Activity
as §1, with “Bean” for “Sunflower”, “discs” for “discs were placed”, “were” for “and”, “mite” for “thrips”, “on mixed population (mobile stages) 8” for “6”

[4] = test system: Diabrotica Balteata (Corn Root Worm); experiment: Diabrotica balteata (corn root worm) mortality on sprayed maize sprouts; settings: 96 h, application rate of 200 ppm, L2 larvae, assessed 4 days after infestation, read-out: control (mortality)
Procedure: Diabrotica Balteata (Corn Root Worm):
Maize sprouts placed onto an agar layer in 24-well microtiter plates were treated with aqueous test solutions prepared from 10′000 ppm DMSO stock solutions by spraying. After drying, the plates were infested with L2 larvae (6 to 10 per well). The samples were assessed for mortality 4 days after infestation.

[5] = test system: Plutella xylostella (Diamond Back Moth); experiment: Plutella xylostella feeding/contact activity on treated artificial diet; settings: 120 h, application rate of 200 ppm, L2 larvae, assessed 5 days after infestation, read-out: control (mortality)
Procedure: Plutella xylostella (Diamond Back Moth): Feeding/Contact Activity
24-well microtiter plates with artificial diet were treated with aqueous test solutions prepared from 10′000 ppm DMSO stock solutions by pipetting. After drying, the plates were infested with L2 larvae (10 to 15 per well). The samples were assessed for mortality 5 days after infestation.

[6] = test system: Spodoptera littoralis (Egyptian Cotton Leaf Worm); experiment: Spodoptera littoralis feeding/contact activity on sprayed cotton leaf discs; settings: foliar, 72 h, application rate of 200 ppm, L1 larvae, assessed 3 days after infestation, read-out: control (mortality)
Procedure: Spodoptera littoralis (Egyptian Cotton Leaf Worm): Feeding/Contact Activity
Cotton leaf discs were placed onto agar in 24-well microtiter plates and sprayed with aqueous test solutions prepared from 10′000 ppm DMSO stock solutions. After drying the leaf discs were infested with five L1 larvae. The samples were assessed for mortality 3 days after infestation.

[7] = test system: Myzus persicae (Green Peach Aphid); experiment: Myzus persicae feeding/contact activity on sprayed sunflower leaf discs; settings: foliar, 144 h, application rate of 200 ppm, aphid population of mixed ages, assessed 6 days after infestation, read-out: control (mortality)
Procedure: Myzus persicae (Green Peach Aphid): Feeding/Contact Activity
Sunflower leaf discs were placed onto agar in a 24-well microtiter plate and sprayed with aqueous test solutions prepared from 10′000 ppm DMSO stock solutions. After drying, the leaf discs were infested with an aphid population of mixed ages. The samples were assessed for mortality 6 days after infestation.

Measured: mortality at 200 ppm

Cn1cc(C(F)(F)C(F)(F)F)c(C(F)(F)F)c1-n1cc(-c2cc(C(=O)NC3CC3)c(C#N)s2)cn1 [Compound 1, 2-cyano-N-cyclopropyl-5-[1-[1-methyl-4-(1,1,2,2,2-pentafluoroethyl)-3-(trifluoromethyl)pyrrol-2-yl]pyrazol-4-yl]thiophene-3-carboxamide]
≥ 80%: all assays above

Cn1cc(C(F)(F)F)c(C(F)(F)C(F)(F)F)c1-n1cc(-c2cc(C(=O)NC3CC3)c(C#N)s2)cn1 [Compound 2, 2-cyano-N-cyclopropyl-5-[1-[1-methyl-3-(1,1,2,2,2-pentafluoroethyl)-4-(trifluoromethyl)pyrrol-2-yl]pyrazol-4-yl]thiophene-3-carboxamide]
not listed: [1]
≥ 80%: all other assays above

Cn1cc(C(F)(F)C(F)(F)F)c(C(F)(F)F)c1-c1cc(-c2cc(C(=O)NC3CC3)c(C#N)s2)on1 [Compound 3, 2-cyano-N-cyclopropyl-5-[3-[1-methyl-4-(1,1,2,2,2-pentafluoroethyl)-3-(trifluoromethyl)pyrrol-2-yl]isoxazol-5-yl]thiophene-3-carboxamide]
not listed: [7]
≥ 80%: all other assays above

Cn1cc(C(F)(F)F)c(C(F)(F)C(F)(F)F)c1-c1cc(-c2cc(C(=O)NC3CC3)c(C#N)s2)on1 [Compound 4, 2-cyano-N-cyclopropyl-5-[3-[1-methyl-3-(1,1,2,2,2-pentafluoroethyl)-4-(trifluoromethyl)pyrrol-2-yl]isoxazol-5-yl]thiophene-3-carboxamide]
not listed: [2] | [7]
≥ 80%: all other assays above

Cn1c(-n2cc(-c3ccc(Cl)c(C(=O)NC4(C#N)CC4)c3)cn2)cc(C(F)(C(F)(F)F)C(F)(F)F)c1Cl [Compound 5, 2-chloro-5-[1-[5-chloro-1-methyl-4-[1,2,2,2-tetrafluoro-1-(trifluoromethyl)ethyl]pyrrol-2-yl]pyrazol-4-yl]-N-(1-cyanocyclopropyl)benzamide]
≥ 80%: [3] | [4] | [5] | [6]

Cn1c(Cl)c(C(F)(C(F)(F)F)C(F)(F)F)c(Br)c1-n1cc(-c2ccc(Cl)c(C(=O)NC3(C#N)CC3)c2)cn1 [Compound 6, 5-[1-[3-bromo-5-chloro-1-methyl-4-[1,2,2,2-tetrafluoro-1-(trifluoromethyl)ethyl]pyrrol-2-yl]pyrazol-4-yl]-2-chloro-N-(1-cyanocyclopropyl)benzamide]
≥ 80%: [3] | [4] | [5] | [6]

Cn1c(Br)cc(C(F)(C(F)(F)F)C(F)(F)F)c1-c1cc(-c2ccc(Cl)c(C(=O)NC3(C#N)CC3)c2)on1 [Compound 7, 5-[3-[5-bromo-1-methyl-3-[1,2,2,2-tetrafluoro-1-(trifluoromethyl)ethyl]pyrrol-2-yl]isoxazol-5-yl]-2-chloro-N-(1-cyanocyclopropyl)benzamide]
≥ 80%: [4] | [5] | [6] | [7]
